Assay type in all cases: functional
Assay [1] is filed under the species Felis catus. In words: Response ratio = (percent increase to drug)/(percent increase to 10 E-5 M isoproterenol).
For assay [2], the species on record is Felis catus. In words: Compound tested for contractility in isolated cat papillary muscle at 10 e-4 M.
Assay [3] is filed under the species Felis catus. In words: Response ratio = (percent increase to drug)/(percent increase to 10 E-4 M isoproterenol).
The species named for assay [4] is Felis catus. In words: Compound tested for contractility in isolated cat papillary muscle at 10 e-5 M.

On to `COc1ccc(-c2nc3cc[nH]cc-3n2)c(OCCCSC)c1`, for which the Response ratio in assay [1] is 0.25; in assay [3], 0.41. In addition, the values for the Control in assay [2] and in assay [4] were 129% and 118%, respectively.
For `CCOc1cc(OC)ccc1-c1nc2cc[nH]cc-2n1`, the Response ratio in assay [1] is recorded as 0.11; in assay [3], 0.41. Moreover, the Control is recorded as 130% in assay [2] and 108% in assay [4].
With `COc1ccc(-c2nc3cc[nH]cc-3n2)c(C)c1`, the figures for the Response ratio in assay [1] and in assay [3] were 0.26 and 0.63, respectively. The Control in assay [2] was 145%; in assay [4], 119%.
On to `COc1ccc(-c2nc3ccc[nH]c-3n2)cc1OC`, for which the Response ratio stood at 0.04 in assay [1] and 0.22 in assay [3]. For the same compound, the Control turned out to be 116.5% in assay [2] and 103% in assay [4].
Regarding `COc1cc(F)ccc1-c1nc2cc[nH]cc-2n1`, the figures for the Response ratio in assay [1] and in assay [3] were 0.28 and 0.58, respectively. The Control in assay [2] was determined as 142%; in assay [4] it was 120%.
Take `COc1ccccc1-c1nc2cc[nH]cc-2n1`: the Response ratio was 0.28 in assay [1] and 1.38 in assay [3]. Moreover, the values for the Control in assay [2] and in assay [4] were 200% and 120%, respectively.
For `Fc1ccc(-c2nc3cc[nH]cc-3n2)cc1`, the Response ratio in assay [1] was determined as 0.06; in assay [3], 0.87. Moreover, the Control stood at 163% in assay [2] and 105% in assay [4].
For `COc1ccc(-c2nc3cc[nH]cc-3n2)c([S+](C)[O-])c1` (stereo not drawn) the same measures were 0.1, 0.22, 116% and 107%.
The like results for `COCCCOc1cc(OC)ccc1-c1nc2cc[nH]cc-2n1` were, in that order, -0.01, 0.65, 147% and 99%.
As to `COc1cc(OC)cc(-c2nc3cc[nH]cc-3n2)c1`, the values for the Response ratio in assay [1] and in assay [3] were 0.21 and 1.1, respectively. Besides, the Control in assay [2] was found to be 179%; in assay [4], 115%.
On to `COc1cccc(OC)c1-c1nc2cc[nH]cc-2n1`, for which the results for the Response ratio in assay [1] and in assay [3] were -0.31 and 1.16, respectively. The Control in assay [2] stood at 184%; in assay [4] it was 78%.
`N#Cc1ccc(-c2nc3ccncc3[nH]2)cc1`: the Response ratio in assay [1] is 0.16; in assay [3], 0.89. Moreover, the Control in assay [2] came to 164%; in assay [4] it was 112%.
Take `COc1ccc(-c2nc3cc[nH]cc-3n2)c(OCC[S+]([O-])c2ccccc2)c1` (stereo not drawn): the Response ratio in assay [1] was 0.1; in assay [3], -0.05. Also, the Control is reported as 96% in assay [2] and 107% in assay [4].
For `COc1cc(-c2nc3cc[nH]cc-3n2)ccc1[S+](C)[O-]` (stereo not drawn) the same measures were 0.15, 0.75, 154% and 111%.
For `COc1cc(OC)c(-c2nc3cc[nH]cc-3n2)c(OC)c1` the same measures were 0.04, 0.51, 137% and 103%.
For `COCCOc1cc(OC)ccc1-c1nc2cc[nH]cc-2n1` the same measures were 0.12, 0.22, 116% and 109%.
With `COc1cc(OCc2ccccc2)ccc1-c1nc2cc[nH]cc-2n1`, the Response ratio is on record as 0.17 in assay [1] and 0.07 in assay [3]. Also, the Control in assay [2] is on record as 105%; in assay [4] it was 112%.

The values above are taken from ChEMBL document CHEMBL1123114, “Structure-activity relationships of arylimidazopyridine cardiotonics: discovery and inotropic activity of 2-[2-methoxy-4-(methylsulfinyl)phenyl]-1H-imidazo[4,5-c]pyridine” (1985).
